# Experimental data as given in patent US12162840B2, “Herbicidal compositions” (SYNGENTA PARTICIPATIONS AG, priority 2018, dated 2024).
# Legend:
# Format in all cases: in vivo
# [1] = tested on: Amaranthus retoflexus (AMARE); test: B1 Post-emergence efficacy Test 1; details: post-emergence application, 1000 g/ha, evaluated after 13 days
# Outline: (§1)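 Plants sprayed 8 days after sowing with compound at 1000 g/ha in acetone/water (50:50) with 0.5% Tween 20; glasshouse at 24/16 °C day/night, 14 h light, 65% humidity. Damage scored 13 days later on a five-point scale (5=80-100% to 1=0-19%).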
# [2] = tested on: Echinochloa crus-galli (ECHCG); test: B1 Post-emergence efficacy Test 1; details: post-emergence application, 1000 g/ha, evaluated after 13 days
# Outline: as §1
# [3] = tested on: Ipomoea hederacea (IPOHE); test: B1 Post-emergence efficacy Test 1; details: post-emergence application, 1000 g/ha, evaluated after 13 days
# Outline: as §1
# [4] = tested on: Lolium perenne (LOLPE); test: B1 Post-emergence efficacy Test 1; details: post-emergence application, 1000 g/ha, evaluated after 13 days
# Outline: as §1
# [5] = tested on: Setaria faberi (SETFA); test: B1 Post-emergence efficacy Test 1; details: post-emergence application, 1000 g/ha, evaluated after 13 days
# Outline: as §1
# [6] = tested on: Solanum nigrum (SOLNI); test: B1 Post-emergence efficacy Test 1; details: post-emergence application, 1000 g/ha, evaluated after 13 days
# Outline: as §1
# [7] = tested on: warm season plant species; test: B2 Post-emergence efficacy Test 2, warm season plant species; details: 15 days after application, 0-100 scale, 0=no damage, 100=total kill; for Herbicidal activity, ABUTH: Abutilon theophrasti; for Herbicidal activity, AMARE: Amaranthus retroflexus; for Herbicidal activity, BIDPI: Bidens pilosa; for Herbicidal activity, BRAPL: Brachiaria plantaginea; for Herbicidal activity, DIGSA: Digitaria sanguinalis; for Herbicidal activity, ECHCG: Echinochloa crus galli; for Herbicidal activity, ELEIN: Eleisine indica; for Herbicidal activity, EPHHL: Euphorbia hetrophylla; for Herbicidal activity, GLXMA: Glycine max; for Herbicidal activity, IPOHE: Ipomoea hederacea; for Herbicidal activity, ORYSA: Orysa sativa; for Herbicidal activity, PANMI: Panicum miliaceum; for Herbicidal activity, SETFA: Setaria faberi; for Herbicidal activity, SIDSP: Sida spinosa; for Herbicidal activity, SORVU: Sorghum bicolour; for Herbicidal activity, XANST: Xanthium strumarium; for Herbicidal activity, ZEAMX: Zea mays
# Protocol: Seeds of a variety of test species (see Table B1) were sown in standard soil in pots. After cultivation for 12 days (post-emergence) under controlled conditions in a glasshouse (at 24/18° C. or 20/16° C., at day/night; 16 hours light; 65% humidity), the plants were sprayed with an aqueous spray solution derived from the formulation of the technical active ingredient dissolved in IF50 (see Table B2 for composition) and adjuvant (Genapol XO80) was added to the spray solution at a rate of 0.2% v/v. [table] [table] After application, the test plants were grown in a glasshouse under controlled conditions (as above) and watered twice daily. Herbicidal activity was evaluated 15 days after application on a 0-100 scale. The results, where 0=no damage to test plant and 100=total kill of test plant are shown below in Tables 6 to 9.
structure (smiles),measurement,setting,value
Cc1nn(C)c(=O)c(-c2c(F)ccc(Cl)c2CCc2ccccc2C(F)(F)F)c1O [Compound 1.066],"percentage damage caused to the plant, five point scale, AMARE",[1],5 (5=80-100%)
same,"percentage damage caused to the plant, five point scale, ECHCG",[2],5 (5=80-100%)
same,"percentage damage caused to the plant, five point scale, IPOHE",[3],5 (5=80-100%)
same,"percentage damage caused to the plant, five point scale, LOLPE",[4],4 (4=60-79%)
same,"percentage damage caused to the plant, five point scale, SETFA",[5],5 (5=80-100%)
same,"percentage damage caused to the plant, five point scale, SOLNI",[6],5 (5=80-100%)
same,"Herbicidal activity, ABUTH",[7]; 15 g/Ha,20
same,"Herbicidal activity, ABUTH",[7]; 30 g/Ha,50
same,"Herbicidal activity, ABUTH",[7]; 60 g/Ha,50
same,"Herbicidal activity, ABUTH",[7]; 125 g/Ha,90
same,"Herbicidal activity, ABUTH",[7]; 250 g/Ha,90
same,"Herbicidal activity, ABUTH",[7]; 500 g/Ha,100
same,"Herbicidal activity, AMARE",[7]; 15 g/Ha,90
same,"Herbicidal activity, AMARE",[7]; 30 g/Ha,90
same,"Herbicidal activity, AMARE",[7]; 60 g/Ha,90
same,"Herbicidal activity, AMARE",[7]; 125 g/Ha,100
same,"Herbicidal activity, AMARE",[7]; 250 g/Ha,100
same,"Herbicidal activity, AMARE",[7]; 500 g/Ha,100
same,"Herbicidal activity, BIDPI",[7]; 15 g/Ha,50
same,"Herbicidal activity, BIDPI",[7]; 30 g/Ha,60
same,"Herbicidal activity, BIDPI",[7]; 60 g/Ha,70
same,"Herbicidal activity, BIDPI",[7]; 125 g/Ha,80
same,"Herbicidal activity, BIDPI",[7]; 250 g/Ha,90
same,"Herbicidal activity, BIDPI",[7]; 500 g/Ha,90
same,"Herbicidal activity, BRAPL",[7]; 15 g/Ha,0
same,"Herbicidal activity, BRAPL",[7]; 30 g/Ha,60
same,"Herbicidal activity, BRAPL",[7]; 125 g/Ha,80
same,"Herbicidal activity, BRAPL",[7]; 250 g/Ha,70
same,"Herbicidal activity, BRAPL",[7]; 500 g/Ha,100
same,"Herbicidal activity, DIGSA",[7]; 15 g/Ha,0
same,"Herbicidal activity, DIGSA",[7]; 30 g/Ha,20
same,"Herbicidal activity, DIGSA",[7]; 60 g/Ha,20
same,"Herbicidal activity, DIGSA",[7]; 125 g/Ha,40
same,"Herbicidal activity, DIGSA",[7]; 250 g/Ha,70
same,"Herbicidal activity, DIGSA",[7]; 500 g/Ha,70
same,"Herbicidal activity, ECHCG",[7]; 15 g/Ha,20
same,"Herbicidal activity, ECHCG",[7]; 30 g/Ha,80
same,"Herbicidal activity, ECHCG",[7]; 60 g/Ha,90
same,"Herbicidal activity, ECHCG",[7]; 125 g/Ha,90
same,"Herbicidal activity, ECHCG",[7]; 250 g/Ha,90
same,"Herbicidal activity, ECHCG",[7]; 500 g/Ha,90
same,"Herbicidal activity, ELEIN",[7]; 15 g/Ha,0
same,"Herbicidal activity, ELEIN",[7]; 30 g/Ha,20
same,"Herbicidal activity, ELEIN",[7]; 60 g/Ha,70
same,"Herbicidal activity, ELEIN",[7]; 125 g/Ha,70
same,"Herbicidal activity, ELEIN",[7]; 250 g/Ha,70
same,"Herbicidal activity, ELEIN",[7]; 500 g/Ha,80
same,"Herbicidal activity, EPHHL",[7]; 15 g/Ha,60
same,"Herbicidal activity, EPHHL",[7]; 30 g/Ha,70
same,"Herbicidal activity, EPHHL",[7]; 60 g/Ha,80
same,"Herbicidal activity, EPHHL",[7]; 125 g/Ha,90
same,"Herbicidal activity, EPHHL",[7]; 250 g/Ha,100
same,"Herbicidal activity, EPHHL",[7]; 500 g/Ha,100
same,"Herbicidal activity, GLXMA",[7]; 15 g/Ha,20
same,"Herbicidal activity, GLXMA",[7]; 30 g/Ha,40
same,"Herbicidal activity, GLXMA",[7]; 60 g/Ha,70
same,"Herbicidal activity, GLXMA",[7]; 125 g/Ha,70
same,"Herbicidal activity, GLXMA",[7]; 250 g/Ha,90
same,"Herbicidal activity, GLXMA",[7]; 500 g/Ha,90
same,"Herbicidal activity, IPOHE",[7]; 15 g/Ha,70
same,"Herbicidal activity, IPOHE",[7]; 30 g/Ha,90
same,"Herbicidal activity, IPOHE",[7]; 60 g/Ha,90
same,"Herbicidal activity, IPOHE",[7]; 125 g/Ha,100
same,"Herbicidal activity, IPOHE",[7]; 250 g/Ha,100
same,"Herbicidal activity, IPOHE",[7]; 500 g/Ha,100
same,"Herbicidal activity, ORYSA",[7]; 15 g/Ha,0
same,"Herbicidal activity, ORYSA",[7]; 30 g/Ha,0
same,"Herbicidal activity, ORYSA",[7]; 60 g/Ha,0
same,"Herbicidal activity, ORYSA",[7]; 125 g/Ha,10
same,"Herbicidal activity, ORYSA",[7]; 250 g/Ha,20
same,"Herbicidal activity, ORYSA",[7]; 500 g/Ha,40
same,"Herbicidal activity, PANMI",[7]; 15 g/Ha,0
same,"Herbicidal activity, PANMI",[7]; 30 g/Ha,50
same,"Herbicidal activity, PANMI",[7]; 60 g/Ha,60
same,"Herbicidal activity, PANMI",[7]; 125 g/Ha,80
same,"Herbicidal activity, PANMI",[7]; 250 g/Ha,100
same,"Herbicidal activity, PANMI",[7]; 500 g/Ha,100
same,"Herbicidal activity, SETFA",[7]; 15 g/Ha,0
same,"Herbicidal activity, SETFA",[7]; 30 g/Ha,70
same,"Herbicidal activity, SETFA",[7]; 60 g/Ha,70
same,"Herbicidal activity, SETFA",[7]; 125 g/Ha,80
same,"Herbicidal activity, SETFA",[7]; 250 g/Ha,90
same,"Herbicidal activity, SETFA",[7]; 500 g/Ha,90
same,"Herbicidal activity, SIDSP",[7]; 15 g/Ha,40
same,"Herbicidal activity, SIDSP",[7]; 30 g/Ha,80
same,"Herbicidal activity, SIDSP",[7]; 60 g/Ha,80
same,"Herbicidal activity, SIDSP",[7]; 125 g/Ha,90
same,"Herbicidal activity, SIDSP",[7]; 250 g/Ha,90
same,"Herbicidal activity, SIDSP",[7]; 500 g/Ha,100
same,"Herbicidal activity, SORVU",[7]; 15 g/Ha,0
same,"Herbicidal activity, SORVU",[7]; 30 g/Ha,20
same,"Herbicidal activity, SORVU",[7]; 60 g/Ha,60
same,"Herbicidal activity, SORVU",[7]; 125 g/Ha,80
same,"Herbicidal activity, SORVU",[7]; 250 g/Ha,90
same,"Herbicidal activity, SORVU",[7]; 500 g/Ha,100
same,"Herbicidal activity, XANST",[7]; 60 g/Ha,90
same,"Herbicidal activity, XANST",[7]; 250 g/Ha,100
same,"Herbicidal activity, XANST",[7]; 500 g/Ha,100
same,"Herbicidal activity, ZEAMX",[7]; 15 g/Ha,0
same,"Herbicidal activity, ZEAMX",[7]; 30 g/Ha,20
same,"Herbicidal activity, ZEAMX",[7]; 60 g/Ha,20
same,"Herbicidal activity, ZEAMX",[7]; 125 g/Ha,20
same,"Herbicidal activity, ZEAMX",[7]; 250 g/Ha,30
same,"Herbicidal activity, ZEAMX",[7]; 500 g/Ha,70
